Assay results as given in patent publication US10577369B2, “Substituted quinazolinones for inhibiting PI3K” (priority 2016, dated 2020).
pIC50: −log10 of the molar value. Read-outs that look alike come from different tables or passages of the source.

How the values were obtained:
PI3K p110α = biological target: T1, PI3K p110α (Homo sapiens, UniProt P42336); assay: PI3K kinase activity test (Adapta kinase assay), p110α; type: biochemical
T1 construct: purchased Thermo Fisher Scientific Inc. (SelectScreen Services)
T1 sequence (P42336 whole entry): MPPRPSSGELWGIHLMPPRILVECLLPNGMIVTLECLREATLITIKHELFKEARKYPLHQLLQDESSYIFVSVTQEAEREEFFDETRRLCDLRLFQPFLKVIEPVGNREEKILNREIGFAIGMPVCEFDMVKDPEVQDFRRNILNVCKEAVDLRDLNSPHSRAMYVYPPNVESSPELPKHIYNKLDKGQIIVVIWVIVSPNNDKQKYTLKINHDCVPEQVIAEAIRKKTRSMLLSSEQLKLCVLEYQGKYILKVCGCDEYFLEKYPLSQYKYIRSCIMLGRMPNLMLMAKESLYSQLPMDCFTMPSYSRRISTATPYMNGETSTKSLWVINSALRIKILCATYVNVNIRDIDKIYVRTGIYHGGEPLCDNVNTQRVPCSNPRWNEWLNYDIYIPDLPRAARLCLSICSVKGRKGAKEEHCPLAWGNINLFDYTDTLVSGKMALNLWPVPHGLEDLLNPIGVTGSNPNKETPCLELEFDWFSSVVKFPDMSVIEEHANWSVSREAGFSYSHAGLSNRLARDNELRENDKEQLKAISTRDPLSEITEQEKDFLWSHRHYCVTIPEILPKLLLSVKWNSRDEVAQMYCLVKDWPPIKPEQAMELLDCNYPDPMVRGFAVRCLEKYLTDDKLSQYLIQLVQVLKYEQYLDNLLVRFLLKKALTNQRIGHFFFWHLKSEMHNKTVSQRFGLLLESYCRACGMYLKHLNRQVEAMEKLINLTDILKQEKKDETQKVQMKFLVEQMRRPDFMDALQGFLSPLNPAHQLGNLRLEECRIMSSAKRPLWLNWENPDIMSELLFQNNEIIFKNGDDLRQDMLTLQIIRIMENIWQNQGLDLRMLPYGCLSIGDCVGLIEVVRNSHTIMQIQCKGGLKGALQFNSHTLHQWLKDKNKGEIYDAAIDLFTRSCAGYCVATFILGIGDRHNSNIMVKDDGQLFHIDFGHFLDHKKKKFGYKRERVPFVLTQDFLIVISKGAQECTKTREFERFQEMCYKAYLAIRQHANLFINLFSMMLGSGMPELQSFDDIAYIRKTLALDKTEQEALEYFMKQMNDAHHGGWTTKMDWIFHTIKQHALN
T1 sequence (P27986 whole entry partner): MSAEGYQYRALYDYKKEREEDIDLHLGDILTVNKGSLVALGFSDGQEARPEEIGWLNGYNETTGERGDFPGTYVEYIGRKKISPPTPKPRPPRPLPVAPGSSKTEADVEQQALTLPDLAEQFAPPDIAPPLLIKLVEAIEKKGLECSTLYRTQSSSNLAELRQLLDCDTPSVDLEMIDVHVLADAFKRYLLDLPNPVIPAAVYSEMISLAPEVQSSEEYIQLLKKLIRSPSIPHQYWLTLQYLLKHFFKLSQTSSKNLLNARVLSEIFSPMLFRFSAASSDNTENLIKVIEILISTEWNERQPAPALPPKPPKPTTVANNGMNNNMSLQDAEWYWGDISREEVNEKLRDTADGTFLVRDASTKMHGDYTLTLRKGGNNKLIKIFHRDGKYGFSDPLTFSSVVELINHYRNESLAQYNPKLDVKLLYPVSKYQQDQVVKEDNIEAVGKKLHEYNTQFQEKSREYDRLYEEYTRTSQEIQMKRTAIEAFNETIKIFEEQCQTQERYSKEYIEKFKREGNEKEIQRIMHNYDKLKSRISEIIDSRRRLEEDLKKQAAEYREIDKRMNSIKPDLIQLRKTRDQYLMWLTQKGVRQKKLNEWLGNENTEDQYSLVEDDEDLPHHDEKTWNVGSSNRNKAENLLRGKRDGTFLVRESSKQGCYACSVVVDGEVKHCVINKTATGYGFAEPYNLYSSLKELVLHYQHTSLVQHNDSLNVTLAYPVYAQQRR
Description: (§1) An experiment was conducted using a homogeneous, fluorescence-based immunoassay, which is Adapta kinase assay. SelectScreen™ Services available from Thermo Fisher Scientific Inc. was carried out.

[1] = system: human umbilical vein endothelial cells (HUVECs); assay: Angiogenesis inhibition, HUVEC tube formation; type: cell-based; conditions: HUVECs on basement membrane matrix, 18 hours; FIG. 7
Description: After 18 hours, tube formation was photographed using a Cytation™ 5 fluorescence microscope (BioTek), and the number of areas formed by branch points was counted using software (see FIG. 6).

PI3K p110γ = biological target: T2, PI3K p110γ (Homo sapiens, UniProt P48736); assay: PI3K kinase activity test (Adapta kinase assay), p110γ; type: biochemical
T2 construct: purchased Thermo Fisher Scientific Inc. (SelectScreen Services)
T2 sequence (P48736 whole entry): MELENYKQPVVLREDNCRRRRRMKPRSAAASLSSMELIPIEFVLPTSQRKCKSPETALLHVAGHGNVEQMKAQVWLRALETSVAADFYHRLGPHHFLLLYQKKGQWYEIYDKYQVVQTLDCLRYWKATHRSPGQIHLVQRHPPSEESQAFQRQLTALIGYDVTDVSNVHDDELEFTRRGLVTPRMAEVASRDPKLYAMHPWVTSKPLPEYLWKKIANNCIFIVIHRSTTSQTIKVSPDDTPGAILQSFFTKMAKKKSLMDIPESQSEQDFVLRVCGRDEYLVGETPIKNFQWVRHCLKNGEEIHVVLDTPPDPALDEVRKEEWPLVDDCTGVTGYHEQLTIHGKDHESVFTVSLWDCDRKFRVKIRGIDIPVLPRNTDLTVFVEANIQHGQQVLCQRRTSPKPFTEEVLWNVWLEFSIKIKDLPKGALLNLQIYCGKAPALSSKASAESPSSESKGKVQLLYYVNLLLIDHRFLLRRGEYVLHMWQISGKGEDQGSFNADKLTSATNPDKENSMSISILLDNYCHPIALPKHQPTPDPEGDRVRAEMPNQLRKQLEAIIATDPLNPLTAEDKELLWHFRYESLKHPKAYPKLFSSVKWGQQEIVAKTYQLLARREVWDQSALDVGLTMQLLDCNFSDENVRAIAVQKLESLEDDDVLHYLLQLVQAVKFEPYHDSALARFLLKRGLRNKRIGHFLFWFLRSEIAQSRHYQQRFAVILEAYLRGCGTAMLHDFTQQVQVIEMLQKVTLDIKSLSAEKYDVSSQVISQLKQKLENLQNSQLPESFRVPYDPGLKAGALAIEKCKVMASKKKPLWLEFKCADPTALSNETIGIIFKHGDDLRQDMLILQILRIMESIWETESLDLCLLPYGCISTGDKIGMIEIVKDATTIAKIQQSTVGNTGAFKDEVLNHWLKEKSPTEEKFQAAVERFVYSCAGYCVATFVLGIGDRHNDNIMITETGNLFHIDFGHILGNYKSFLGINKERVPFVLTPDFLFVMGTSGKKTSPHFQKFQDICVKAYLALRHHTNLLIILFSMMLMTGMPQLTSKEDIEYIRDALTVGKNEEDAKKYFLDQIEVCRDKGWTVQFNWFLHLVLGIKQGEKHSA
Description: as §1

[2] = system: diffuse large B-cell lymphoma (DLBCL) and acute lymphocytic leukemia (ALL) cells; assay: Apoptosis of DLBCL and ALL cells by flow cytometry (Annexin V-FITC/PI); type: cell-based; conditions: 50 μM, 24 hours, FIG. 5
Description: The cells were washed with PBS, and then suspended in a binding buffer. 5 μl of an Annexin V-FITC stock solution (Becton Dickinson Science, Inc) and 5 μl of PI (20 μg/ml) were added thereto, followed by incubation at room temperature for 15 minutes with light-shielding, and then the target material was quantified on FACScan™ (Becton Dickinson) by flow cytometry.

[3] = system: diffuse large B-cell lymphoma (DLBCL) and acute lymphocytic leukemia (ALL) cells; assay: Apoptosis of DLBCL and ALL cells by SDS-PAGE / immunoblotting (caspase 3, 9, PARP cleavage); type: cell-based; conditions: 50 μM, 36 hours; FIG. 4
Description: Immunoblotting analysis was performed using antibodies of these, and glyceraldehyde-3-phosphate dehydrogenase (GAPDH) was used as a loading control.

SupB15 (ALL) cells = assay: Growth inhibition of leukemia cells (CCK-8), SupB15; type: cell-based; conditions: Homo sapiens, read-out: LC50 SupB15 (ALL)
Description: (§2) Cell growth-inhibiting effects on the DLBCL-derived cells and the ALL-derived cells were evaluated by measuring the absorbance of cell counting kit-8 (CCK-8) dye. During the last 3 hours of the 48 hours, […] of a CCK-8 dye was added to each plate and then cultured.
(§3) All data are expressed as the mean (±SD) of three independent experiments.

PI3K p110δ = biological target: T3, PI3K p110δ (Homo sapiens, UniProt O00329); assay: PI3K kinase activity test (Adapta kinase assay), p110δ; type: biochemical; conditions: for pIC50: Adapta kinase assay; for ratio PI3Kα/PI3Kδ, as IC50 values / ratio PI3Kβ/PI3Kδ, as IC50 values / ratio of PI3Kγ/PI3Kδ: selectivity, ratio of IC50 values
T3 construct: purchased Thermo Fisher Scientific Inc. (SelectScreen Services)
T3 sequence (O00329 whole entry): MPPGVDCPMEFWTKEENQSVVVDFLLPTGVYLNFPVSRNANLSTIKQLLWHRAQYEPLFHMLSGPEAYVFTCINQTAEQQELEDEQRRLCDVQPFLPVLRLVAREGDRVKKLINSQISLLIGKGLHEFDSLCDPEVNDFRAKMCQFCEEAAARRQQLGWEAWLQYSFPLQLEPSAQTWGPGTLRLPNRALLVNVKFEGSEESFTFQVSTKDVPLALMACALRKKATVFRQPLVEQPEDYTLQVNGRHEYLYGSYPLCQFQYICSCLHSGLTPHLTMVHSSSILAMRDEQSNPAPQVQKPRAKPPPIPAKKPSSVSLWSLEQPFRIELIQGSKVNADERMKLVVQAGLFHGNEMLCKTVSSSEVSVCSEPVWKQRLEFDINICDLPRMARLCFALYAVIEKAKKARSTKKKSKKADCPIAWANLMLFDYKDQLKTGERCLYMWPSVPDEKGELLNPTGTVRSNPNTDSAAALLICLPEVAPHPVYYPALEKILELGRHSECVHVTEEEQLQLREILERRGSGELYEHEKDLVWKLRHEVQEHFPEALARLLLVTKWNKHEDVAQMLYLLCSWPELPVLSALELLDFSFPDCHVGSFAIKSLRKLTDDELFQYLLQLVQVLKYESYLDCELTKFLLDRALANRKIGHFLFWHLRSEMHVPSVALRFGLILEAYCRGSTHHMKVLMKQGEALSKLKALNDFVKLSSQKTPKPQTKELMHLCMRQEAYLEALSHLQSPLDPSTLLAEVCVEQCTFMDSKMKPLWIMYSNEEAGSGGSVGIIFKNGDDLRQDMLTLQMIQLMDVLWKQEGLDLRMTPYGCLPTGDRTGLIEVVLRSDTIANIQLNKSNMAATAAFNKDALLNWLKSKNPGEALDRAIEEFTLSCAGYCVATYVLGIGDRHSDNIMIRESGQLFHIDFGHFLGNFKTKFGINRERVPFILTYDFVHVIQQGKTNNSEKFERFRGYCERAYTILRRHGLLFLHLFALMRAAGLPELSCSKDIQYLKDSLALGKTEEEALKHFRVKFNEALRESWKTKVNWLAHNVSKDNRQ
T3 sequence (P27986 whole entry partner): as the sequence (P27986 whole entry partner) above
Description: as §1

rats = assay: Single dose toxicity test in rats; type: in vivo, rat; conditions: single oral dose, female rats, observed day 1 to day 2; approximate lethal dose
Description: The compound of Formula 7 and the compound of Formula 8 were orally administered to eight six-week-old female rats, to observe the single dose oral toxicity thereof and to obtain an approximate lethal dose. The dosage was set at 10 mL/kg, and the dosage for each rat was calculated based on body weight. Each compound was administered at doses of 100 mg/kg, 300 mg/kg, 900 mg/kg, and 1,500 mg/kg, and general symptoms were observed once a day from day 1 to day 2 after administration.

Phospho-Akt (Ser473) = assay: AKT (Ser473) phosphorylation in leukemia and lymphoma cell lines (immunoblotting); type: cell-based; conditions: 1 μM, 1 hour; SUDHL 5, SUDHL 10, CCRF-SB, MOLT4; FIG. 2
Source text: Subsequently, cells were lysed and fractionated according to size, followed by immunoblotting with antibodies directed against Phospho-Akt (Ser473).

SUDHL5 (DLBCL) cells = assay: Growth inhibition of lymphoma cells (CCK-8), SUDHL5; type: cell-based; conditions: Homo sapiens, read-out: LC50 SUDHL5 (DLBCL)
Description: as §2, §3

PI3K p110β = biological target: T4, PI3K p110β (Homo sapiens, UniProt P42338); assay: PI3K kinase activity test (Adapta kinase assay), p110β; type: biochemical
T4 construct: purchased Thermo Fisher Scientific Inc. (SelectScreen Services)
T4 sequence (P42338 whole entry): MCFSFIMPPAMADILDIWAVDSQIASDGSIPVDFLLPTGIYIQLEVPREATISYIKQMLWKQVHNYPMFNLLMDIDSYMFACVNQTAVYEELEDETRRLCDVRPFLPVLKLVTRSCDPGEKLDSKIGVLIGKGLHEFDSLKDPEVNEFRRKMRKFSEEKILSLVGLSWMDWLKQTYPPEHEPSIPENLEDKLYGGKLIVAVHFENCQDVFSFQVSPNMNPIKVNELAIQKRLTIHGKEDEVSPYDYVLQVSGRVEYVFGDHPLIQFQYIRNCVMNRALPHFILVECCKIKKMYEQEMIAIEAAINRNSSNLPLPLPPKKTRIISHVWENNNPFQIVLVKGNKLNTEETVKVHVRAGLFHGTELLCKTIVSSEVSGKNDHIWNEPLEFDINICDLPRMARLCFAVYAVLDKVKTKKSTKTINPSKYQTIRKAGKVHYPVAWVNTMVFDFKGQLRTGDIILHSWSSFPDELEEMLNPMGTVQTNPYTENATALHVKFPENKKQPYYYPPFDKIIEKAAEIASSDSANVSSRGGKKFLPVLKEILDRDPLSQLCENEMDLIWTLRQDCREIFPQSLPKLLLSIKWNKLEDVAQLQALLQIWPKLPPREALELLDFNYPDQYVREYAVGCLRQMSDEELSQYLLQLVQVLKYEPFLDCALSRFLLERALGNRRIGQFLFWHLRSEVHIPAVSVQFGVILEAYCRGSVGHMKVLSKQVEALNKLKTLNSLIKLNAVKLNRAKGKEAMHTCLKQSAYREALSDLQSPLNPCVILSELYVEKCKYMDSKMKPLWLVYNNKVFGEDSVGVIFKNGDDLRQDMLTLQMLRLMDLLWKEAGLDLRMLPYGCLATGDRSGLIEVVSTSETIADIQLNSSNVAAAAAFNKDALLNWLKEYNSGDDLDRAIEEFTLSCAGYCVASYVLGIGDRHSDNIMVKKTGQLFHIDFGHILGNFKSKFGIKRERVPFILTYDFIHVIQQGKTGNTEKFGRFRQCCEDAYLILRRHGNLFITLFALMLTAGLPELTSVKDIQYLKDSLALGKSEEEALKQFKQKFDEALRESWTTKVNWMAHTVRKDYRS
T4 sequence (P27986 whole entry partner): as the sequence (P27986 whole entry partner) above
Description: as §1

MOLT4 (ALL) cells = assay: Growth inhibition of leukemia cells (CCK-8), MOLT4; type: cell-based; conditions: Homo sapiens, read-out: LC50 MOLT4 (ALL)
Description: as §2, §3

[4] = system: human umbilical vein endothelial cells (HUVECs); assay: Number of viable HUVECs treated with compound; type: cell-based; conditions: FIG. 8

Compound: O=c1c2c(F)cccc2nc([C@@H](Nc2ncnc3nc[nH]c23)C2CC2)n1-c1ccccc1 [Formula 7, (S)-2-(((7H-purin-6-yl)amino)(cyclopropyl)methyl)-5-fluoro-3-phenylquinazolin-4(3H)-one]
- pIC50 (PI3K p110α): 6.69
- inhibition of angiogenesis (tube formation) compared with idelalisib [1]: inhibited angiogenesis more than the comparative drug
- pIC50 (PI3K p110γ): 7.59
- apoptosis induction compared with idelalisib (flow cytometry) [2]: more effectively induced apoptosis than the comparative drug
- apoptosis compared with comparative drug idelalisib (SDS-PAGE) [3]: apoptosis occurred more actively
- apoptosis induction (SDS-PAGE, immunoblotting) [3]: induced apoptosis
- CC50 (SupB15 (ALL) cells; SUP-B15, 48 h): > 20000 nM
- pIC50 (PI3K p110δ): 9.30
- ratio PI3Kα/PI3Kδ, as IC50 values (PI3K p110δ): 412
- ratio PI3Kβ/PI3Kδ, as IC50 values (PI3K p110δ): 210
- ratio of PI3Kγ/PI3Kδ (PI3K p110δ): 51
- lethal dose (rats): > 1,500 mg/kg
- reduction of AKT (Ser473) phosphorylation (Phospho-Akt (Ser473)): induced the reduction of AKT phosphorylation
- CC50 (SUDHL5 (DLBCL) cells; SU-DHL-5, 48 h): 1100 nM
- pIC50 (PI3K p110β): 6.98
- CC50 (MOLT4 (ALL) cells; MOLT-4, 48 h): 13700 nM
- cytotoxicity to HUVECs (number of viable cells) [4]: did not significantly affect the cytotoxicity

Compound: Cc1cccc2nc([C@@H](Nc3ncnc4nc[nH]c34)C3CC3)n(-c3ccccc3)c(=O)c12 [Formula 8, (S)-2-(((7H-purin-6-yl)amino)(cyclopropyl)methyl)-5-methyl-3-phenylquinazolin-4(3H)-one]
- pIC50 (PI3K p110α): 6.87
- inhibition of angiogenesis (tube formation) compared with idelalisib [1]: inhibited angiogenesis more than the comparative drug
- pIC50 (PI3K p110γ): 8.07
- apoptosis induction compared with idelalisib (flow cytometry) [2]: more effectively induced apoptosis than the comparative drug
- apoptosis compared with comparative drug idelalisib (SDS-PAGE) [3]: apoptosis occurred more actively
- apoptosis induction (SDS-PAGE, immunoblotting) [3]: induced apoptosis
- CC50 (SupB15 (ALL) cells; SUP-B15, 48 h): 16500 nM
- pIC50 (PI3K p110δ): 10.05
- ratio PI3Kα/PI3Kδ, as IC50 values (PI3K p110δ): 1,488
- ratio PI3Kβ/PI3Kδ, as IC50 values (PI3K p110δ): 1,800
- ratio of PI3Kγ/PI3Kδ (PI3K p110δ): 95
- lethal dose (rats): 1,500 mg/kg
- reduction of AKT (Ser473) phosphorylation (Phospho-Akt (Ser473)): induced the reduction of AKT phosphorylation
- CC50 (SUDHL5 (DLBCL) cells; SU-DHL-5, 48 h): 900 nM
- pIC50 (PI3K p110β): 6.79
- CC50 (MOLT4 (ALL) cells; MOLT-4, 48 h): 4900 nM
- cytotoxicity to HUVECs (number of viable cells) [4]: did not significantly affect the cytotoxicity

Compound: CC[C@H](Nc1ncnc2[nH]cnc12)c1nc2cccc(F)c2c(=O)n1-c1ccccc1 [Idelalisib, idelalisib, reference compound]
- CC50 (SupB15 (ALL) cells; SUP-B15, 48 hours, CCK-8): > 20000 nM
- CC50 (SUDHL5 (DLBCL) cells; SU-DHL-5, 48 hours, CCK-8): 3000 nM
- CC50 (MOLT4 (ALL) cells; MOLT-4, 48 hours, CCK-8): > 20000 nM
